This is an account of results in publication PMC7802075 (ACS Infectious Diseases, 2020).

This experiment concerns the target T1, LmjIPCS (inositol phosphorylceramide synthase from L. major) (Leishmania major, UniProt E9AFX2).
T1 sequence (E9AFX2 1-338): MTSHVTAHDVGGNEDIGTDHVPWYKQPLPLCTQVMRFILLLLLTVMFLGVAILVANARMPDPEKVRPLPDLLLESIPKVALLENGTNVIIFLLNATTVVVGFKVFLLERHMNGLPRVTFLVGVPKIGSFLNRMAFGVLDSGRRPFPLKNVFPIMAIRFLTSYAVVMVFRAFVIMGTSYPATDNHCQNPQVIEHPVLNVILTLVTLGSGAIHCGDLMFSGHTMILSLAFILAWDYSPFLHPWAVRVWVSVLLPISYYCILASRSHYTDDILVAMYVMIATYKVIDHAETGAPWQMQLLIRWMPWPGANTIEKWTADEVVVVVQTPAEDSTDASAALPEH
The experiment can be described thus: biochemical. The experiment is classed as biochemical. Further details: inhibition: dose or concentration left out as unconfirmed. Conditions: for inhibition: read-out: inhibition LmjIPCS; for inhibition at 20000 µM: read-out: 20mM inhibition LmjIPCS.

Where [1] appears, read: screening of NINDS set, sheet Screen 1.
Setting [2] is: single concentration 20mM as printed, screening of NINDS set, sheet Screen 1.
[3] abbreviates: NINDS set screen, single concentration printed as 20mM.

Like-named read-outs stand apart in the source and are kept apart here. Where a SMILES comes first, the peptide text is derived from it.

Regarding `CC[C@H]1OC(=O)[C@H](C)[C@@H](O[C@H]2C[C@@](C)(OC)[C@@H](O)[C@H](C)O2)[C@H](C)[C@@H](O[C@@H]2O[C@H](C)C[C@H](N(C)C)[C@H]2O)[C@](C)(O)C[C@@H](C)[C@@H]2N[C@@H](COCCOC)O[C@H]([C@H]2C)[C@]1(C)O` [DIRITHROMYCIN], the “20mM inhibition LmjIPCS” value stood at 47%.

As to `COc1ccc2c(c1)c(CC(=O)O)c(C)n2C(=O)c1ccc(Cl)cc1` [INDOMETHACIN], the inhibition is -3.42%.

Consider `N[C@H](CO)Cc1ccccc1` [L-PHENYLALANINOL], for which the inhibition at 20000 µM amounted to 24%.

`CC(C)Cn1c(=O)n(C)c(=O)c2[nH]cnc21` [ISOBUTYLMETHYLXANTHINE]: the inhibition worked out at 14%.

On to `S=c1[nH]cnc2nc[nH]c12` [MERCAPTOPURINE], for which the inhibition under setting [1] stood at 6%.

With `CC1(C)S[C@@H]2[C@H](NC(=O)[C@H](N)c3ccc(O)cc3)C(=O)N2[C@H]1C(=O)O` [AMOXICILLIN], the “20mM inhibition LmjIPCS” value came out at 41%.

For `O=C1OC(=O)[C@H]2[C@@H]1[C@@H]1CC[C@H]2O1` [NORCANTHARIDIN], the “20mM inhibition LmjIPCS” value is 1.76%.

For `CC(=O)OC(C)C[N+](C)(C)C` (stereo not shown) [METHACHOLINE CHLORIDE], the inhibition at 20000 µM was -18%.

With `O=C(O)CCc1nc(-c2ccccc2)c(-c2ccccc2)o1` [OXAPROZIN], the inhibition came out at 5.6%.

Turning to `OCc1c[nH]c2ccccc12` [INDOLE-3-CARBINOL], the inhibition at 20000 µM stood at 11%.

Turning to `Cn1cnc([N+](=O)[O-])c1Sc1ncnc2nc[nH]c12` [AZATHIOPRINE], the “20mM inhibition LmjIPCS” value was determined as 39%.

As to `CC(=O)NC(C(=O)O)C(C)(C)SN=O` (stereo not shown), the inhibition at 20000 µM came to 9%.

Turning to `Nc1nc2c(ncn2COCCO)c(=O)[nH]1` [ACYCLOVIR], the inhibition at 20000 µM came to 5%.

For `C[C@H]1CC[C@]2(NC1)O[C@H]1C[C@H]3[C@@H]4CC[C@H]5C[C@@H](O[C@@H]6O[C@H](CO)[C@H](O[C@@H]7O[C@H](CO)[C@@H](O)[C@H](O[C@@H]8OC[C@@H](O)[C@H](O)[C@H]8O)[C@H]7O[C@@H]7O[C@H](CO)[C@@H](O)[C@H](O)[C@H]7O)[C@H](O)[C@H]6O)CC[C@]5(C)[C@H]4CC[C@]3(C)[C@H]1[C@@H]2C` [TOMATINE], the inhibition at 20000 µM was found to be 12%.

Turning to `CC(C)=CCC/C(C)=C\CO` [NEROL], the inhibition worked out at 33%.

As for `Cn1cnc2c1c(=O)[nH]c(=O)n2C` [THEOBROMINE], the inhibition at 20000 µM stood at 24%.

Consider `OCC(O)CN1CCN(c2ccccc2)CC1` (stereo not shown) [DROPROPIZINE], for which the inhibition at 20000 µM is 18%.

As to `COc1ccc(C2C(=O)c3ccccc3C2=O)cc1` [ANISINDIONE], the inhibition under setting [1] was 10%.

With `CC(C)(Oc1ccc(Cl)cc1)C(=O)O` [CLOFIBRIC ACID], the “20mM inhibition LmjIPCS” value was 56%.

Consider `C[C@H]1O[C@@H](O[C@H]2[C@@H](O)C[C@H](O[C@H]3[C@@H](O)C[C@H](O[C@H]4CC[C@@]5(C)[C@H](CC[C@@H]6[C@@H]5CC[C@]5(C)[C@@H](C7=CC(=O)OC7)CC[C@]65O)C4)O[C@@H]3C)O[C@@H]2C)C[C@H](O)[C@@H]1O` [DIGITOXIN], for which the inhibition at 20000 µM is 5.28%.

Consider `Cc1cccc(C)c1NC(=O)C1CCCCN1C` (stereo not shown) [MEPIVACAINE], for which the “20mM inhibition LmjIPCS” value is given as 55%.

Consider `C[C@H]1O[C@@H](n2cc(F)c(=O)[nH]c2=O)[C@H](O)[C@@H]1O` [5-FLUORO-5'-DEOXYURIDINE], for which the “20mM inhibition LmjIPCS” value under setting [2] came out at 3.33%.

On to `CC(=O)OCC(=O)[C@@]1(O)CC[C@H]2[C@@H]3CCC4=CC(=O)CC[C@]4(C)[C@@]3(F)[C@@H](O)C[C@@]21C` [FLUDROCORTISONE ACETATE], for which the inhibition at 20000 µM turned out to be 4.65%.

For `NCC(=O)CCC(=O)O` [AMINOLEVULINIC ACID], the inhibition is 28%.

In the case of `CCN(CC)C(=O)c1cccc(C)c1` [DIETHYLTOLUAMIDE], the inhibition at 20000 µM was determined as 17%.

Take `C[C@]12CCC3c4ccc(OC(=O)CCC(=O)O)cc4CCC3C1CCC2=O` (stereo partly shown) [ESTRONE HEMISUCCINATE]: the “20mM inhibition LmjIPCS” value came to 12%.

Turning to `COc1cc2c(cc1OC)[C@@H]1Cc3ccc(OC)c(OC)c3CN1CC2` [TETRAHYDROPALMATINE], the inhibition came to 29%.

On to `CC1=C(C(=O)O)N2C(=O)[C@@H](NC(=O)[C@H](N)c3ccccc3)[C@H]2SC1` [CEPHALEXIN], for which the inhibition at 20000 µM was 5.26%.

With `CC(=O)O[C@H]1C[C@@]2(C)[C@@H](C[C@@H](O)[C@H]3[C@@]4(C)CC[C@@H](O)[C@@H](C)[C@@H]4CC[C@@]32C)/C1=C(\CCC=C(C)C)C(=O)O` [FUSIDIC ACID], the inhibition is 5.47%.

Regarding `CNNC` [1,2-DIMETHYLHYDRAZINE], the “20mM inhibition LmjIPCS” value amounted to 15%.

As for `CO[C@H]1C[C@H](O[C@H]2[C@H](C)[C@@H](O[C@@H]3O[C@H](C)C[C@H](N(C)C)[C@H]3O)[C@@H](C)C[C@@]3(CO3)C(=O)[C@H](C)[C@@H](O)[C@@H](C)[C@@H](C)OC(=O)[C@@H]2C)O[C@@H](C)[C@@H]1O` [OLEANDOMYCIN], the inhibition at 20000 µM was 1.17%.

In the case of `Cc1cc(C)nc(NS(=O)(=O)c2ccc(N)cc2)n1` [SULFAMETHAZINE], the inhibition came to 1.49%.

Consider `CC1(C)S[C@@H]2[C@H](NC(=O)[C@H](NC(=O)N3CCNC3=O)c3ccccc3)C(=O)N2[C@H]1C(=O)O` [AZLOCILLIN], for which the inhibition at 20000 µM was -4%.

Take `CCOC(=O)[C@H](CCc1ccccc1)N[C@@H](C)C(=O)N1Cc2ccccc2C[C@H]1C(=O)O`: the inhibition at 20000 µM came to 5.45%.

Regarding `O=C(O)c1cc(O)c2ccc(Cl)cc2n1` [7-CHLOROKYNURENIC ACID], the inhibition under setting [1] stood at 9%.

With `CCN(CC)CC(=O)Nc1c(C)cccc1C` [LIDOCAINE], the inhibition at 20000 µM came to 2.47%.

Regarding `C#CCCCCCCCCCCCC(=O)CC(O)COC(C)=O` (stereo not shown) [AVOCADYNONE ACETATE], the “20mM inhibition LmjIPCS” value under setting [3] stood at 67%.

As for `O=C(O)CN(CCN(CC(=O)O)CC(=O)O)CC(=O)O.[Na+].[Na+].[Na+]` [TRISODIUM ETHYLENEDIAMINE TETRACETATE], for the setting “NINDS set screen, single concentration 20mM as printed”, the “20mM inhibition LmjIPCS” value is listed as -4.23%.

On to `O=C1CC[C@@]2(O)[C@H]3Cc4ccc(O)c5c4[C@@]2(CCN3CC2CC2)[C@H]1O5` [NALTREXONE], for which the inhibition amounted to 8%.

As for `Cn1c(=O)c2c(ncn2CC(O)CO)n(C)c1=O` (stereo not shown) [DYPHYLLINE], under “NINDS set screen”, the inhibition is -5.31%.

On to `C[C@]12CC[C@@H]3c4ccc(O)cc4CC[C@H]3[C@@H]1CC[C@@H]2O` [ESTRADIOL], for which the inhibition at 20000 µM was -5.65%.

For the compound `N#C[C@H](O[C@@H]1O[C@H](CO[C@@H]2O[C@H](CO)[C@@H](O)[C@H](O)[C@H]2O)[C@@H](O)[C@H](O)[C@H]1O)c1ccccc1` [AMYGDALIN], the inhibition at 20000 µM is -4%.

`C=C[C@H]1C[N@@]2CC[C@H]1C[C@@H]2[C@@H](O)c1ccnc2ccc(OC)cc12` [QUINIDINE]: the “20mM inhibition LmjIPCS” value is 55%.

For `O=C(O)c1cc2cc(Cc3cccnc3)ccc2o1` [FUREGRELATE], the inhibition at 20000 µM was -16%.

`CC(C)C[C@H](NC(=O)CN)C(=O)N[C@@H](Cc1ccccc1)C(=O)O` (H-Gly-Leu-Phe-OH): the inhibition at 20000 µM was 11%.

With `NCCc1cc(O)c(O)cc1O` [OXIDOPAMINE], the “20mM inhibition LmjIPCS” value is listed as 65%.

As to `Oc1c(Cl)cc(Cl)c2cccnc12` [CHLOROXINE], the “20mM inhibition LmjIPCS” value is 37%.

For `O=C1C(O)=C([C@H]2CC[C@H](c3ccc(Cl)cc3)CC2)C(=O)c2ccccc21` [ATOVAQUONE], the “20mM inhibition LmjIPCS” value under setting [3] came out at 46%.

For `CN1C(=O)CCS(=O)(=O)C1c1ccc(Cl)cc1` (stereo not shown) [CHLORMEZANONE], the inhibition at 20000 µM is -1.07%.

Turning to `CC(=O)OCC1=C(C(=O)O)N2C(=O)[C@@H](NC(=O)Cc3cccs3)[C@H]2SC1` [CEPHALOTHIN], the “20mM inhibition LmjIPCS” value came to 55%.

For the compound `O=C(O)CN(CC(=O)O)Cc1cc2c(cc1O)Oc1cc(O)c(CN(CC(=O)O)CC(=O)O)cc1C21OC(=O)c2ccccc21` [CALCEIN], the inhibition at 20000 µM was determined as 0%.

As for `NCCCC[C@H](N)C(=O)N[C@@H](Cc1ccccc1)C(=O)N[C@@H](Cc1ccc(O)cc1)C(=O)O` [LYSYLPHENYLALANYLTYROSINE] (H-Lys-Phe-Tyr-OH), the inhibition at 20000 µM came out at 4.61%.

On to `CCCN(CCC)C(=O)C(CCC(=O)O)NC(=O)c1ccccc1` (stereo not shown) [PROGLUMIDE], for which the inhibition at 20000 µM came out at 15%.

With `CN(N=O)C(=O)N[C@H]1C(O)O[C@H](CO)[C@@H](O)[C@@H]1O` (mixture of isomers) [STREPTOZOSIN], the inhibition at 20000 µM came out at 16%.

On to `O=c1cc[nH]c(=S)[nH]1` [2-THIOURACIL], for which the inhibition at 20000 µM is 7%.

As to `COc1ccc2c(c1)CC[C@@H]1[C@@H]2CC[C@]2(C)[C@@H](O)[C@H](O)C[C@@H]12` [ESTRIOL METHYL ETHER], under setting [2], the “20mM inhibition LmjIPCS” value worked out at 8%.

With `Oc1ccc(/C=C/c2cc(O)cc(O)c2)cc1` [RESVERATROL], the inhibition is -9%.

In the case of `Cn1c(=O)c2[nH]cnc2n(C)c1=O` [THEOPHYLLINE], the inhibition at 20000 µM amounted to 11%.

As to `O=C1O[C@H](CO)[C@@H](O)[C@H](O)[C@H]1O` [GLUCONOLACTONE], the inhibition at 20000 µM came out at 0.589%.

With `CN1C(=O)CC[C@H]1c1cccnc1` [COTININE], the “20mM inhibition LmjIPCS” value is 34%.

Turning to `CC(C)Cc1ccc(C(C)C(=O)O)cc1` (stereo not shown) [IBUPROFEN], the inhibition was found to be 2.58%.

As for `CN(C)CCc1c[nH]c2ccc(CS(=O)(=O)N3CCCC3)cc12` [ALMOTRIPTAN], the inhibition at 20000 µM came to 5%.

Take `C#C[C@]1(O)CC[C@H]2[C@@H]3CCC4=C(CCC(=O)C4)[C@H]3CC[C@@]21C` [NORETHYNODREL]: the inhibition at 20000 µM was found to be 21%.

Regarding `NC(=O)c1ccc([N+](=O)[O-])cc1Cl` [AKLOMIDE], under setting [1], the inhibition was found to be 4%.
